Laboratory results: US20240343761A1, “APELINERGIC MACROCYCLES AND USES THEREOF” (priority 2021, published 2024)
Bridge positions count the residues as written; N and C are the ends. Square brackets hold non-standard residues; d marks the D form. Peptide text beside a SMILES is read from it. * marks the point of attachment. dAllylGly = C=CC[C@@H](N)C(=O)O; AllylGly = C=CC[C@H](N)C(=O)O; pGlu = O=C1CC[C@@H](C(=O)O)N1; Nle = CCCC[C@H](N)C(=O)O; Bn = c1ccc(C*)cc1

These compounds were tested against T1, hAPJ receptor (Homo sapiens, UniProt P35414) (assay: BRET-based β-arrestin2 recruitment assay in HEK293 cells). Settings: not given.
T1 construct: expressed in transfected cells; host or cells: HEK293, transient transfection with PEI
T1 sequence (P35414 1-380): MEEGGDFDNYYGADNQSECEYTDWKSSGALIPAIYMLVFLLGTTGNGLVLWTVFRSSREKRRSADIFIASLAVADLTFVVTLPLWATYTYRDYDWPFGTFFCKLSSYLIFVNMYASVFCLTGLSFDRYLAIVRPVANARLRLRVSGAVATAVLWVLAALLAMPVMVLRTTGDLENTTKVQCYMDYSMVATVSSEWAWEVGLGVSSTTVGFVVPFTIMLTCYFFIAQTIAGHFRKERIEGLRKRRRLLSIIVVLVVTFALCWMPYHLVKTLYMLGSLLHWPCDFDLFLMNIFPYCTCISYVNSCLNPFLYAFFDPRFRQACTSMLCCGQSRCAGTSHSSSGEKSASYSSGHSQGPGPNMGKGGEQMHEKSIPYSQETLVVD
Assay type: cell-based
Description: (§1) HEK293 cells were cultivated in high glucose DMEM medium having 10% FBS, 100 U/mL penicillin/streptomycin, 2 mM glutamine, and 20 mM HEPES at 37° C. in T175 flasks under humidified chamber at 5% CO2. […] Cells were then washed with phosphate-buffered saline (PBS) and 90 μL Hanks' balanced salt solution was added in each well. Then, cells were stimulated with analogs at concentrations ranging from 10^−5 M to 10^−11 M for 5 min at 37° C. (Gαi1) or for 30 min at room temperature (β-arrestin2). After stimulation, 5 μM of coelanterazine 400A was added to each well and the plate was read using the BRET^2 filter set of a GeniosPro plate reader (Tecan, Austria). The BRET ratio was determined as GFP10em/RlucIIem. Data were plotted and EC50 values were determined using GraphPad Prism 8. Each data point represents the mean±SEM of at least three different experiments each done in triplicate.
Compound `CC(C)C[C@@H]1NC(=O)[C@@H]2CCCN2C(=O)[C@@H](NC(=O)[C@H](CO)NC(=O)[C@H](CCCNC(=N)N)NC(=O)[C@H](CCCNC(=N)N)NC(=O)[C@@H]2CCC(=O)N2)CCC(=O)NCCCC[C@@H](C(=O)N[C@@H](CCCNC(=N)N)C(=O)N[C@H](C(=O)N2CCC[C@H]2C(=O)N[C@@H](Cc2ccccc2)C(=O)N2C[C@H](OCc3ccccc3)C[C@H]2C(=O)O)C(C)C)NC(=O)[C@H](Cc2c[nH]cn2)NC1=O` [Compound 93, Pyr-R-R-S-[E-P-L-H-K]-R-V-P-F-Hyp(OBn)] has an EC50 of 2200 ± 132 nM.

Each compound was assayed against T2, human APJ (hAPJ) (Homo sapiens, UniProt P35414) (assay: Competitive radioligand binding ([125I][Nle75,Tyr77][Pyr1]-Ape13) on membranes of HEK293 cells stably expressing human APJ). Settings: not given.
T2 construct: expressed in transfected cells; cell membranes
T2 sequence (P35414 1-380): T1 sequence (P35414 1-380)
Description: HEK293 cells stably expressing YFP-tagged human APJ were cultured in DMEM medium supplemented with 10% FBS, at 37° C. under a humid atmosphere maintaining 5% CO2. Antibiotic G418 (400 μg/mL) was added to maintain a selection pressure for APJ-expressing cells while penicillin/streptomycin (0.1%) were used to prevent bacterial contamination.
Binding experiments were performed on cell membranes of HEK293 stably expressing the YFP-tagged human APJ receptor. Cells were frozen at −80° C. for storage and quickly thawed right before the experiments (1 min at 37° C.). […] The precipitate (cell membranes) was suspended in binding buffer (50 mM Tris-HCl, 0.2% BSA, pH 7.4). Binding assays were run in 96-well plates. […] (820 Ci/mmol)^3 and test ligand with a range of concentrations from 10^−1 to 10^−11 M in a total volume of 200 μL for 1 h at room temperature.
The incubation mixtures were filtered through a glass fiber filter (Millipore, pre-absorbed of PEI 0.5% for 2 h at 4° C.) to remove unbound ligands, and the filter membranes were washed three times with 170 μL cold binding buffer (4° C.). The γ emission was measured using a 1470 Wizard γ-counter from PerkinElmer (Waltham, USA) (80% efficiency).
Compound `CCCC[C@@H]1NC(=O)[C@@H]2CCCN2C(=O)[C@@H](NC(=O)[C@H](CCCCN)NC(=O)[C@H](Cc2c[nH]cn2)NC(=O)[C@H](CO)NC(=O)[C@H](CC(C)C)NC(=O)[C@H](CCCNC(=N)N)NC(=O)[C@@H]2CCCN2C(=O)[C@H](CCCNC(=N)N)NC(=O)[C@@H]2CCC(=O)N2)CC=CC[C@H](C(=O)O)NC(=O)[C@@H]2CCCN2C1=O` [Compound 10, Pyr-R-P-R-L-S-H-K-[X-P-Nle-P-dX]] ([pGlu]RPRLSHK[AllylGly]P[Nle]P[dAllylGly]-OH; staple 9-13) has a Ki of 187 ± 20 nM. In the case of `CCCC[C@@H]1NC(=O)[C@@H]2CCCN2C(=O)[C@H](NC(=O)[C@H](CCCCN)NC(=O)[C@H](Cc2c[nH]cn2)NC(=O)[C@H](CO)NC(=O)[C@H](CC(C)C)NC(=O)[C@H](CCCNC(=N)N)NC(=O)[C@@H]2CCCN2C(=O)[C@H](CCCNC(=N)N)NC(=O)[C@@H]2CCC(=O)N2)CC=CC[C@@H](C(=O)O)NC(=O)[C@@H]2CCCN2C1=O` [Compound 9, Pyr-R-P-R-L-S-H-K-[dX-P-Nle-P-X]] ([pGlu]RPRLSHK[dAllylGly]P[Nle]P[AllylGly]-OH; staple 9-13), the Ki is reported as 52 ± 15 nM.

Same assay, conditions: Ki (APJ affinity)
`CCCC[C@H](NC(=O)[C@@H]1CCCN1C(=O)CNC(=O)[C@@H]1CC=CC[C@H](N)C(=O)N[C@@H](CCCNC(=N)N)C(=O)N[C@@H](CC(C)C)C(=O)N[C@@H](CO)C(=O)N1)C(=O)O` [Compound 31, NH2-c[X-R-L-S-X]c-G-P-Nle] (H-[AllylGly]RLS[AllylGly]GP[Nle]-OH; staple 1-5) was tested, and the Ki was 0.6 nM.

Same assay, conditions: Ki binding
With `CCCC[C@H](NC(=O)[C@@H]1CCCN1C(=O)CNC(=O)[C@H](CCCCN)NC(=O)[C@@H]1CC=CC[C@H](NC(=O)[C@@H]2CCC(=O)N2)C(=O)N2CCC[C@H]2C(=O)N[C@@H](CCCNC(=N)N)C(=O)N[C@@H](CC(C)C)C(=O)N[C@@H](CO)C(=O)N1)C(=O)N1CCC[C@H]1C(=O)N[C@@H](Cc1ccccc1)C(=O)O` [Compound 4, Pyr-c[X-P-R-L-S-X]c-K-G-P-Nle-P-F] ([pGlu][AllylGly]PRLS[AllylGly]KGP[Nle]PF-OH; staple 2-7) the Ki was 148 ± 21 nM. Work on `CCCC[C@H](NC(=O)[C@@H]1CCCN1C(=O)CNC(=O)[C@H](CCCCN)NC(=O)[C@H](Cc1c[nH]cn1)NC(=O)[C@H](CO)NC(=O)[C@@H]1CC=CC[C@H](NC(=O)[C@@H]2CCC(=O)N2)C(=O)N2CCC[C@H]2C(=O)N[C@@H](CCCNC(=N)N)C(=O)N1)C(=O)N1CCC[C@H]1C(=O)N[C@@H](Cc1ccccc1)C(=O)O` [Compound 3, Pyr-c[X-P-R-X]c-S-H-K-G-P-Nle-P-F] ([pGlu][AllylGly]PR[AllylGly]SHKGP[Nle]PF-OH; staple 2-5) yielded a Ki of 1250 ± 284 nM. Compound `CCCC[C@H](NC(=O)[C@@H]1CCCN1C(=O)CNC(=O)[C@@H]1CC=CC[C@H](N)C(=O)N[C@@H](CCCNC(=N)N)C(=O)N[C@@H](CC(C)C)C(=O)N[C@@H](CO)C(=O)N1)C(=O)O` [Compound 31, NH2-c[X-R-L-S-X]c-G-P-Nle] (H-[AllylGly]RLS[AllylGly]GP[Nle]-OH; staple 1-5) has a Ki of over 10000 nM. `CCCC[C@H](NC(=O)[C@@H]1CCCN1C(=O)CNC(=O)[C@@H]1CC=CC[C@H](NC(=O)[C@@H]2CCC(=O)N2)C(=O)N2CCC[C@H]2C(=O)N[C@@H](C)C(=O)N[C@@H](CC(C)C)C(=O)N[C@@H](CO)C(=O)N[C@@H](Cc2c[nH]cn2)C(=O)N1)C(=O)N1CCC[C@H]1C(=O)N[C@@H](Cc1ccccc1)C(=O)O` [Compound 8, Pyr-c[X-P-A-L-S-H-X]c-G-P-Nle-P-F] ([pGlu][AllylGly]PALSH[AllylGly]GP[Nle]PF-OH; staple 2-8) gave a Ki of over 10000 nM. With `N=C(N)NCCC[C@H](N)C(=O)N[C@H]1CCCCNC(=O)CC[C@@H](C(=O)N[C@@H](Cc2ccc(OCc3ccccc3)cc2)C(=O)O)NC(=O)[C@@H]2CCCN2C1=O` [Compound 58, NH2-R-c[K-P-E]-Tyr(Obn)] (H-RKPEY(Bn)-OH; lactam 2-4) the Ki was over 10000 nM.

Each compound was assayed against T1, hAPJ receptor (assay: BRET-based Gαi1 activation assay in HEK293 cells). Settings: not given.
Assay type: cell-based
Description: as §1
For `CC(C)C[C@@H]1NC(=O)[C@@H]2CCCN2C(=O)[C@@H](NC(=O)[C@H](CO)NC(=O)[C@H](CCCNC(=N)N)NC(=O)[C@H](CCCNC(=N)N)NC(=O)[C@@H]2CCC(=O)N2)CCC(=O)NCCCC[C@@H](C(=O)N[C@@H](CCCNC(=N)N)C(=O)N[C@H](C(=O)N2CCC[C@H]2C(=O)N[C@@H](Cc2ccccc2)C(=O)N2C[C@H](OCc3ccccc3)C[C@H]2C(=O)O)C(C)C)NC(=O)[C@H](Cc2c[nH]cn2)NC1=O` [Compound 93, Pyr-R-R-S-[E-P-L-H-K]-R-V-P-F-Hyp(OBn)], the EC50 was 47 ± 3 nM.
